According to patent US12296053B2, “Nanomaterials comprising triols” (Beam Therapeutics Inc., priority 2022, dated 2025):

Columns and labels:
[1] = LNP hydrodynamic diameter and polydispersity index by dynamic light scattering (DLS); assay type: physicochemical; details: for Diameter (nm): hydrodynamic diameter of the LNP preparation with the ionizable lipid; for PDI: polydispersity index of the LNP preparation with the ionizable lipid
Protocol: (§1) A 3:1 ratio of aqueous to organic solvent was maintained during mixing using differential flow rates. After mixing, LNP preparations were collected and diluted in TBS (approximately 7:1 v/v), and further buffer exchange was conducted using dialysis in TBS at 4° C. for 8 to 24 hours against a 20 kDa filter. After this initial dialysis, each individual LNP preparation was characterized via dynamic light scattering (DLS) to measure size and polydispersity. pKa of a subpopulation of LNP preparations was measured via TNS assay.
DLS-LNP preparation hydrodynamic diameter and polydispersity index (PDI) was measured using high throughput dynamic light scattering (DLS) (DynaPro plate reader II, Wyatt). LNP preparations were diluted 1×PBS to an appropriate concentration and analyzed.

ALAS1 target site = test: Base editing in liver by LNP-delivered ABE mRNA and sgRNA, targeted deep sequencing; assay type: in vivo; details: LNP with the ionizable lipid, ABE mRNA + sgRNA targeting ALAS1 1:1; tail vein injection, Balb/c mice; 0.05 mg/kg; tissues four to six days post-dose
Protocol: (§2) Lipid nanoparticle components were dissolved in 100% ethanol at specified lipid component molar ratios. mRNA encoding an adenine base editor and a chemically-modified sgRNA was dissolved at a mass ratio of 1:1 in 50 mM citrate, pH 4.0, resulting in a concentration of NA cargo of approximately 0.1 mg/mL.
(§3) LNP preparations were formulated with molar ratios of 47.5% Ionizable Lipid: 40% Cholesterol: 2.5% PEG2000-DMG: 10% DSPC total lipid to NA molar ratio of 6 to 12.
(§4) LNP preparations were formed by microfluidic mixing of the lipid and NA solutions using Precision Nanosystems NanoAssemblr Ignite series Instruments, according to the manufacturer's protocol.
as §1
Male Balb/C mice aged approximately 8-12 weeks were used in the experiments described herein. […]
Age-matched mice were also used to administer vehicle (1×TBS) via tail vein injection as a control. Four to six days post-dose, tissues including liver, spleen, and bone marrow were collected. Base editing was determined by performing targeted deep sequencing analysis at the ALAS1 target site using extracted genomic DNA. Genomic DNA was isolated and fragmented and adapter-ligated using the Nextera DNA Flex Library Prep Kit (Illumina) using the 96-well plate Nextera indexing primers (Illumina), according to the manufacturer's instructions. Library size and concentration was confirmed by Fragment Analyzer (Agilent) and analyzed for whole genome sequencing using an Illumina HiSeq.

[2] = Encapsulation efficiency of LNP preparations (Ribogreen assay; Qubit, unlysed and lysed LNPs); assay type: physicochemical; details: LNP preparation with the ionizable lipid, ABE mRNA:sgRNA 1:1, except 7-1, 7-2, 7-6, 7-10 (unlysed and lysed LNPs, Qubit)
Protocol: as §2, §3, §4
With the exception of LNPs comprising ionizable lipids 7-1, 7-2, 7-6, and 7-10, RNA concentration and encapsulation efficiency were determined by Ribogreen assay (BioTek Synergy LX plate reader). For LNPs comprising ionizable lipids 7-1, 7-2, 7-6, and 7-10, RNA concentration was determined by Qubit microRNA kit (for siRNA) or HS RNA kit (for mRNA) per manufacturer's instructions, and encapsulation efficiency was determined by measuring unlysed and lysed LNPs.

Diameter (nm) [1]	PDI [1]	Encapsulation Efficiency (%) [2]	Compound	% Editing in Liver (0.05 mpk) (ALAS1 target site)
52.45 nm	0.04	97.3%	CC/C=C\CCCCOC(CCC(=O)OCC(COC(=O)CCCCCC(=O)OCCC(CCCCC)CCCCC)COC(=O)CCC(CCCCCC)OC(=O)NCCN1CCCC1)OCCCC/C=C\CC (centres unmarked) [Compound 7-13, 1-(3-((4,4-bis(((Z)-oct-5-en-1-yl)oxy)butanoyl)oxy)-2-(((4-(((2-(pyrrolidin-1-yl)ethyl)carbamoyl)oxy)decanoyl)oxy)methyl)propyl) 7-(3-pentyloctyl) heptanedioate]	2.2%
59.40 nm	0.09	97.6%	CC/C=C\CCCCOC(CCC(=O)OCC(COC(=O)CCCCCC(=O)OCCC(CCCCCC)CCCCCC)COC(=O)CCC(CCCCCC)OC(=O)NCCN1CCCC1)OCCCC/C=C\CC (centres unmarked) [Compound 7-14, 1-(3-((4,4-bis(((Z)-oct-5-en-1-yl)oxy)butanoyl)oxy)-2-(((4-(((2-(pyrrolidin-1-yl)ethyl)carbamoyl)oxy)decanoyl)oxy)methyl)propyl) 7-(3-hexylnonyl) heptanedioate]	0.1%
52.55 nm	0.05	98.0%	CC/C=C\CCCCOC(CCC(=O)OCC(COC(=O)CCCCC(=O)OCCC(CCCCCC)CCCCCC)COC(=O)CCC(CCCCCC)OC(=O)NCCN1CCCC1)OCCCC/C=C\CC (centres unmarked) [Compound 7-16, 3-((4,4-bis(((Z)-oct-5-en-1-yl)oxy)butanoyl)oxy)-2-(((4-(((2-(pyrrolidin-1-yl)ethyl)carbamoyl)oxy)decanoyl)oxy)methyl)propyl (3-hexylnonyl) adipate]	0.7%
55.60 nm	0.08	96.1%	CC/C=C\CCCCOC(CCC(=O)OCC(COC(=O)CCCCCCC(=O)OCCC(CCCC)CCCC)COC(=O)CCC(CCCCCC)OC(=O)NCCN1CCCC1)OCCCC/C=C\CC (centres unmarked) [Compound 7-18, 1-(3-((4,4-bis(((Z)-oct-5-en-1-yl)oxy)butanoyl)oxy)-2-(((4-(((2-(pyrrolidin-1-yl)ethyl)carbamoyl)oxy)decanoyl)oxy)methyl)propyl) 8-(3-butylheptyl) octanedioate]	3.3%
54.15 nm	0.12	97.2%	CC/C=C\CCCCOC(CCC(=O)OCC(COC(=O)CCCCCCC(=O)OCCC(CCCCC)CCCCC)COC(=O)CCC(CCCCCC)OC(=O)NCCN1CCCC1)OCCCC/C=C\CC (centres unmarked) [Compound 7-19, 1-(3-((4,4-bis(((Z)-oct-5-en-1-yl)oxy)butanoyl)oxy)-2-(((4-(((2-(pyrrolidin-1-yl)ethyl)carbamoyl)oxy)decanoyl)oxy)methyl)propyl) 8-(3-pentyloctyl) octanedioate]	1.7%
71.40 nm	0.10	98.3%	CC/C=C\CCCCOC(CCC(=O)OCC(COC(=O)CCCCCC(=O)OCCC(CCCCC)CCCCC)COC(=O)CCC(C)OC(=O)NCCN1CCCC1)OCCCC/C=C\CC (centres unmarked) [Compound 7-30, 1-(3-((4,4-bis(((Z)-oct-5-en-1-yl)oxy)butanoyl)oxy)-2-(((4-(((2-(pyrrolidin-1-yl)ethyl)carbamoyl)oxy)pentanoyl)oxy)methyl)propyl) 7-(3-pentyloctyl) heptanedioate]	0.8%

Continued, molecule first:

Compound	Diameter (nm) [1]	PDI [1]	Encapsulation Efficiency (%) [2]	% Editing in Liver (0.05 mpk) (ALAS1 target site)
CC/C=C\CCCCOC(CCC(=O)OCC(COC(=O)CCCCCC(=O)OCCC(CCCC)CCCC)COC(=O)CCC(CCCCCC)OC(=O)NCCN1CCCC1)OCCCC/C=C\CC (centres unmarked) [Compound 7-12, 1-(3-((4,4-bis(((Z)-oct-5-en-1-yl)oxy)butanoyl)oxy)-2-(((4-(((2-(pyrrolidin-1-yl)ethyl)carbamoyl)oxy)decanoyl)oxy)methyl)propyl) 7-(3-butylheptyl) heptanedioate]	69.26 nm	0.11	96.4%	1.7%
CCCCCCCCOC(CCC(=O)OCC(COC(=O)CCCCCC(=O)OCCC(CCCCC)CCCCC)COC(=O)CCC(CCCCCC)OC(=O)NCCN1CCCC1)OCCCCCCCC (centres unmarked) [Compound 7-15, 1-(3-((4,4-bis(octyloxy)butanoyl)oxy)-2-(((4-(((2-(pyrrolidin-1-yl)ethyl)carbamoyl)oxy)decanoyl)oxy)methyl)propyl) 7-(3-pentyloctyl) heptanedioate]	58.45 nm	0.08	97.9%	6.8%
CCCCCCCCOC(CCC(=O)OCC(COC(=O)CCCCC(=O)OCCC(CCCCCC)CCCCCC)COC(=O)CCC(CCCCCC)OC(=O)NCCN1CCCC1)OCCCCCCCC (centres unmarked) [Compound 7-17, 3-((4,4-bis(octyloxy)butanoyl)oxy)-2-(((4-(((2-(pyrrolidin-1-yl)ethyl)carbamoyl)oxy)decanoyl)oxy)methyl)propyl (3-hexylnonyl) adipate]	57.11 nm	0.09	98.5%	1.0%
CC/C=C\CCCCOC(CCC(=O)OCC(COC(=O)CCCCCCOC(=O)C(CCCC)CCCCCC)COC(=O)CCC(CCCC)OC(=O)NCCN1CCCC1)OCCCC/C=C\CC (centres unmarked) [Compound 7-22, 3-((4,4-bis(((Z)-oct-5-en-1-yl)oxy)butanoyl)oxy)-2-(((7-((2-butyloctanoyl)oxy)heptanoyl)oxy)methyl)propyl 4-(((2-(pyrrolidin-1-yl)ethyl)carbamoyl)oxy)octanoate]	65.85 nm	0.06	97.3%	5.6%
CC/C=C\CCCCOC(CCC(=O)OCC(COC(=O)CCCCCCOC(=O)C(CCCC)CCCCCC)COC(=O)CCC(CCCCC)OC(=O)NCCN1CCCC1)OCCCC/C=C\CC (centres unmarked) [Compound 7-23, 3-((4,4-bis(((Z)-oct-5-en-1-yl)oxy)butanoyl)oxy)-2-(((7-((2-butyloctanoyl)oxy)heptanoyl)oxy)methyl)propyl 4-(((2-(pyrrolidin-1-yl)ethyl)carbamoyl)oxy)nonanoate]	57.90 nm	0.12	98.7%	1.0%
CC/C=C\CCCCOC(CCC(=O)OCC(COC(=O)CCCCCC(=O)OCCC(CCCCC)CCCCC)COC(=O)CCC(CCC)OC(=O)NCCN1CCCC1)OCCCC/C=C\CC (centres unmarked) [Compound 7-25, 1-(3-((4,4-bis(((Z)-oct-5-en-1-yl)oxy)butanoyl)oxy)-2-(((4-(((2-(pyrrolidin-1-yl)ethyl)carbamoyl)oxy)heptanoyl)oxy)methyl)propyl) 7-(3-pentyloctyl) heptanedioate]	78.75 nm	0.11	97.8%	0.9%
CC/C=C\CCCCOC(CCC(=O)OCC(COC(=O)CCCCCC(=O)OCCC(CCCCC)CCCCC)COC(=O)CCC(CCCCC)OC(=O)NCCN1CCCC1)OCCCC/C=C\CC (centres unmarked) [Compound 7-27, 1-(3-((4,4-bis(((Z)-oct-5-en-1-yl)oxy)butanoyl)oxy)-2-(((4-(((2-(pyrrolidin-1-yl)ethyl)carbamoyl)oxy)nonanoyl)oxy)methyl)propyl) 7-(3-pentyloctyl) heptanedioate]	61.25 nm	0.06	96.9%	5.3%
CC/C=C\CCCCOC(CCC(=O)OCC(COC(=O)CCCCCC(=O)OCC(CCCC)CCCCCC)COC(=O)CCC(CCCCCC)OC(=O)NCCN1CCCC1)OCCCC/C=C\CC (centres unmarked) [Compound 7-32, 1-(3-((4,4-bis(((Z)-oct-5-en-1-yl)oxy)butanoyl)oxy)-2-(((4-(((2-(pyrrolidin-1-yl)ethyl)carbamoyl)oxy)decanoyl)oxy)methyl)propyl) 7-(2-butyloctyl) heptanedioate]	53.30 nm	0.10	96.1%	0.6%
